Tests used:
[1] = Radiation-induced oxidation of liposomes (MDA/TBA read-out); type: biochemical, hen; details: for Radioprotection in %: 500 Gy Co60 γ-quanta, 84.8 Gy/min, liposomes 2 mg/ml phospholipids in saline solution
Text: (§1) The biologic membranes play the most important role in cell vital activity. The high sensibility of lipids and phospholipids, which are the main structural components of biomembranes, as to oxidative stress, including those caused by irradiation, is the consequence of the high content of unsaturated fatty acids. The liposomes being obtained from phospholipids of hen's egg yolk were used as a model of the biomembranes. The phospholipids are able to form liposome emulsions in water; this allows studying in model experiments the radioprotective and antioxidant properties of various water-soluble and water-insoluble compounds, including water-insoluble phytoene as well. To obtain the liposomes, 20 mg of the phospholipids, being dissolved in chloroform, were entered into a conical vial and dried in vacuum. Then 2 ml of a saline solution containing 0.15 M NaCl, 0.005 M KCl, 0.0012 M KH2PO4, 0.0012 M Na2HPO4 at pH 7.4 was added to the dried sample. The mixture has been shaken, input into an ultrasonic bath for 30 seconds, and then the total volume was increased up to 10 ml, stirred, treated with ultrasound, and as the result the liposome suspension with the phospholipid concentration of 2 mg/ml was received. […] Optical density of the colored TBA products was calculated by the optical density data, considering the molar extinction coefficient at 532 nm equals to 156,000 mol^-1·cm^-1. […] Taking as 100% the level of the MDA increment at the induced liposome oxidation above spontaneous phospholipids oxidation in the absence of phytoene, and taking into account the fact that the presence of phytoene in the liposomes can modify the level of the spontaneous oxidation, the protection efficacy (PE)OK in the […] of the induced liposome oxidation was calculated by the formula: (PE)OK=(CPOK-CPK)·100/(COK-CK), in which CPK , CPOK are the MDA concentrations in the liposomes with phytoene before and after the liposome induced oxidation respectively; CK, COK (are the MDA concentrations in the control liposomes (without phytoene) before and after the liposome induced oxidation respectively.

[2] = Fe++-induced oxidation of liposomes (MDA/TBA read-out); type: biochemical, hen; details: for Protection against Fe++-induced oxidation in %: 50 μM Fe++, 30 minutes, room temperature
Text: as §1

In the case of `CC(C)=CCC/C(C)=C/CC/C(C)=C/CC/C(C)=C/C=C/C=C(\C)CC/C=C(\C)CC/C=C(\C)CCC=C(C)C` (stereo in doubt) [phytoene], the Radioprotection in % ([1]; phytoene:phospholipid 1:10) is reported as 62.0 ± 10.4%, the Radioprotection in % ([1]; phytoene:phospholipid 1:100) is reported as 37.2 ± 5.2% and the “Protection of liposomes against oxidative stress induced by the radiation (in words)” value ([1]; summary statement) is reported as “protects the liposomes against the oxidative stress”. For the same compound, the “Protection against Fe++-induced oxidation in %” value ([2]; phytoene:phospholipid 1:10) was 50.9 ± 6.6%, the “Protection against Fe++-induced oxidation in %” value ([2]; phytoene:phospholipid 1:100) was 18.7 ± 11.5% and the “Protection of liposomes against oxidative stress induced with ferrous iron ions (in words)” value ([2]; summary statement) was “protects the liposomes against the oxidative stress”.

— patent publication US20150328269A1, “PREPARATION FOR RADIO PROTECTION” (LYCORED LTD., priority 2012, published 2015)
